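Cells were grown in 96-well plates and exposed to each compound for 48 hours at five concentrations; endpoints were interpolated linearly between bracketing concentrations, or set to the highest concentration if not reached. TGI is the concentration that stops growth completely.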
Legend:
Assay in all cases: DTP human tumour cell line panel, 48 h
DMS 273 small cell lung = test system: DMS 273 small cell lung
SNB-78 CNS = test system: SNB-78 CNS
XF 498 CNS = test system: XF 498 CNS
NCI-H460 lung = test system: NCI-H460 lung
HL-60(TB) leukemia = test system: HL-60(TB) leukemia
LOX IMVI melanoma = test system: LOX IMVI melanoma
IGROV1 ovarian = test system: IGROV1 ovarian
SF-268 CNS = test system: SF-268 CNS
RXF 393 renal = test system: RXF 393 renal
A549 NSCLC = test system: A549 NSCLC
LXFL 529 NSCLC = test system: LXFL 529 NSCLC
SK-MEL-2 melanoma = test system: SK-MEL-2 melanoma
SR leukemia = test system: SR leukemia
SNB-19 CNS = test system: SNB-19 CNS
RXF-631 renal = test system: RXF-631 renal
DMS 114 small cell lung = test system: DMS 114 small cell lung
OVCAR-3 ovarian = test system: OVCAR-3 ovarian
TK-10 renal = test system: TK-10 renal
SK-MEL-28 melanoma = test system: SK-MEL-28 melanoma
SW-620 colon = test system: SW-620 colon
SK-MEL-5 melanoma = test system: SK-MEL-5 melanoma
HT29 colon = test system: HT29 colon
HCT-116 colon = test system: HCT-116 colon
SN12C renal = test system: SN12C renal
SNB-75 CNS = test system: SNB-75 CNS
A498 renal = test system: A498 renal
M14 melanoma = test system: M14 melanoma
COLO 205 colon = test system: COLO 205 colon
CAKI-1 renal = test system: CAKI-1 renal
CCRF-CEM leukemia = test system: CCRF-CEM leukemia
SK-OV-3 ovarian = test system: SK-OV-3 ovarian
ACHN renal = test system: ACHN renal
786-0 renal = test system: 786-0 renal
UACC-257 melanoma = test system: UACC-257 melanoma
U251 CNS = test system: U251 CNS
MALME-3M melanoma = test system: MALME-3M melanoma
OVCAR-5 ovarian = test system: OVCAR-5 ovarian
OVCAR-4 ovarian = test system: OVCAR-4 ovarian
HOP-62 NSCLC = test system: HOP-62 NSCLC
MOLT-4 leukemia = test system: MOLT-4 leukemia
SF-539 CNS = test system: SF-539 CNS
NCI-H226 lung = test system: NCI-H226 lung
NCI-H23 lung = test system: NCI-H23 lung
SF-295 CNS = test system: SF-295 CNS
K-562 leukemia = test system: K-562 leukemia
NCI-H522 lung = test system: NCI-H522 lung
OVCAR-8 ovarian = test system: OVCAR-8 ovarian
HCT-15 colon = test system: HCT-15 colon
RPMI-8226 leukemia = test system: RPMI-8226 leukemia
KM12 colon = test system: KM12 colon
HOP-18 NSCLC = test system: HOP-18 NSCLC
DLD-1 colon = test system: DLD-1 colon
MDA-MB-435 = test system: MDA-MB-435
UO-31 renal = test system: UO-31 renal
MDA-N = test system: MDA-N
PC-3 prostate = test system: PC-3 prostate
M19-MEL melanoma = test system: M19-MEL melanoma
MDA-MB-231 breast = test system: MDA-MB-231 breast
NCI/ADR-RES ovarian = test system: NCI/ADR-RES ovarian
HOP-92 NSCLC = test system: HOP-92 NSCLC
EKVX NSCLC = test system: EKVX NSCLC
MCF7 breast = test system: MCF7 breast
T-47D breast = test system: T-47D breast
UACC-62 melanoma = test system: UACC-62 melanoma
HCC-2998 colon = test system: HCC-2998 colon
HS 578T breast = test system: HS 578T breast
KM20L2 colon = test system: KM20L2 colon
DU-145 prostate = test system: DU-145 prostate
BT-549 breast = test system: BT-549 breast

## Cc1c(C(=O)C/C(=N/NC(=O)c2ccccc2)C(=O)Nc2ccc(Cl)cc2)[n+](=O)c2ccccc2n1[O-]
DMS 273 small cell lung
  TGI: > 100 µM
SNB-78 CNS
  TGI: > 100 µM
XF 498 CNS
  TGI: > 100 µM
NCI-H460 lung
  TGI: > 100 µM
HL-60(TB) leukemia
  TGI: 56.4 µM
LOX IMVI melanoma
  TGI: > 100 µM
IGROV1 ovarian
  TGI: > 100 µM
SF-268 CNS
  TGI: > 100 µM
RXF 393 renal
  TGI: > 100 µM
A549 NSCLC
  TGI: > 100 µM
LXFL 529 NSCLC
  TGI: > 100 µM
SK-MEL-2 melanoma
  TGI: > 100 µM
SR leukemia
  TGI: > 100 µM
SNB-19 CNS
  TGI: > 100 µM
RXF-631 renal
  TGI: > 100 µM
DMS 114 small cell lung
  TGI: > 100 µM
OVCAR-3 ovarian
  TGI: > 100 µM
TK-10 renal
  TGI: > 100 µM
SK-MEL-28 melanoma
  TGI: > 100 µM
SW-620 colon
  TGI: > 100 µM
SK-MEL-5 melanoma
  TGI: > 100 µM
HT29 colon
  TGI: > 100 µM
HCT-116 colon
  TGI: > 100 µM
SN12C renal
  TGI: > 100 µM
SNB-75 CNS
  TGI: > 100 µM
A498 renal
  TGI: > 100 µM
M14 melanoma
  TGI: > 100 µM
COLO 205 colon
  TGI: > 100 µM
CAKI-1 renal
  TGI: > 100 µM
CCRF-CEM leukemia
  TGI: 74.4 µM
SK-OV-3 ovarian
  TGI: > 100 µM
ACHN renal
  TGI: > 100 µM
786-0 renal
  TGI: > 100 µM
UACC-257 melanoma
  TGI: > 100 µM
U251 CNS
  TGI: > 100 µM
MALME-3M melanoma
  TGI: > 100 µM
OVCAR-5 ovarian
  TGI: > 100 µM
OVCAR-4 ovarian
  TGI: > 100 µM
HOP-62 NSCLC
  TGI: > 100 µM
MOLT-4 leukemia
  TGI: > 100 µM
SF-539 CNS
  TGI: > 100 µM
NCI-H226 lung
  TGI: > 100 µM
NCI-H23 lung
  TGI: 92.6 µM
SF-295 CNS
  TGI: > 100 µM
K-562 leukemia
  TGI: > 100 µM
NCI-H522 lung
  TGI: > 100 µM
OVCAR-8 ovarian
  TGI: > 100 µM
HCT-15 colon
  TGI: > 100 µM
RPMI-8226 leukemia
  TGI: > 100 µM
KM12 colon
  TGI: > 100 µM
HOP-18 NSCLC
  TGI: > 100 µM
DLD-1 colon
  TGI: > 100 µM

## CCOC(=O)N1C/C(=C\c2ccccc2)C(=O)/C(=C/c2ccccc2)C1
DMS 273 small cell lung
  TGI: 6.44 µM
SNB-78 CNS
  TGI: > 81.2 µM
XF 498 CNS
  TGI: 26.6 µM
NCI-H460 lung
  TGI: 42.4 µM
HL-60(TB) leukemia
  TGI: 4.3 µM
MDA-MB-435
  TGI: 5.8 µM
LOX IMVI melanoma
  TGI: 3.63 µM
IGROV1 ovarian
  TGI: 11.7 µM
SF-268 CNS
  TGI: 11.9 µM
RXF 393 renal
  TGI: 10.3 µM
A549 NSCLC
  TGI: 54.3 µM
LXFL 529 NSCLC
  TGI: 12.4 µM
SK-MEL-2 melanoma
  TGI: 28.2 µM
SR leukemia
  TGI: 4.05 µM
SNB-19 CNS
  TGI: 20.2 µM
UO-31 renal
  TGI: 12.4 µM
DMS 114 small cell lung
  TGI: 14.5 µM
OVCAR-3 ovarian
  TGI: 14.5 µM
TK-10 renal
  TGI: 26.4 µM
SK-MEL-28 melanoma
  TGI: 6.69 µM
SW-620 colon
  TGI: 3.7 µM
SK-MEL-5 melanoma
  TGI: 6.2 µM
HT29 colon
  TGI: 4.05 µM
HCT-116 colon
  TGI: 2.75 µM
MDA-N
  TGI: 3.62 µM
SN12C renal
  TGI: 5.61 µM
PC-3 prostate
  TGI: 5.16 µM
SNB-75 CNS
  TGI: 22.4 µM
M19-MEL melanoma
  TGI: 3.22 µM
A498 renal
  TGI: 34.2 µM
M14 melanoma
  TGI: 6.69 µM
COLO 205 colon
  TGI: 11.6 µM
CAKI-1 renal
  TGI: 4.51 µM
CCRF-CEM leukemia
  TGI: 5.79 µM
MDA-MB-231 breast
  TGI: 5.3 µM
SK-OV-3 ovarian
  TGI: 27.8 µM
ACHN renal
  TGI: 10.6 µM
NCI/ADR-RES ovarian
  TGI: 36.6 µM
HOP-92 NSCLC
  TGI: 22.4 µM
EKVX NSCLC
  TGI: 31.8 µM
MCF7 breast
  TGI: > 20.9 µM
786-0 renal
  TGI: 9.15 µM
UACC-257 melanoma
  TGI: 12.5 µM
U251 CNS
  TGI: 7.43 µM
MALME-3M melanoma
  TGI: 16.9 µM
T-47D breast
  TGI: > 31.6 µM
OVCAR-5 ovarian
  TGI: 18.2 µM
OVCAR-4 ovarian
  TGI: 13.6 µM
UACC-62 melanoma
  TGI: 6.51 µM
HOP-62 NSCLC
  TGI: 24.8 µM
MOLT-4 leukemia
  TGI: 6 µM
SF-539 CNS
  TGI: 11 µM
NCI-H226 lung
  TGI: 12.3 µM
HCC-2998 colon
  TGI: 4.8 µM
NCI-H23 lung
  TGI: 11.4 µM
HS 578T breast
  TGI: 15.3 µM
SF-295 CNS
  TGI: 10.1 µM
K-562 leukemia
  TGI: > 38.3 µM
NCI-H522 lung
  TGI: 7.44 µM
OVCAR-8 ovarian
  TGI: 9.51 µM
HCT-15 colon
  TGI: 5.74 µM
RPMI-8226 leukemia
  TGI: 1.77 µM
KM20L2 colon
  TGI: 22.4 µM
DU-145 prostate
  TGI: > 55.8 µM
BT-549 breast
  TGI: 4.54 µM
KM12 colon
  TGI: 4.55 µM
HOP-18 NSCLC
  TGI: > 67.5 µM
DLD-1 colon
  TGI: 7.25 µM

From PubChem BioAssay (NCI)
